From patent US10865207B2, “Compounds for imaging Tau protein aggregates” (AC IMMUNE S.A., priority 2016, dated 2020)
Entries after “also recorded” stand apart in the source; their conditions may differ. Marks after values point to notes of the source that are not given here.

What was measured:
[1] = target: amyloid-beta (Homo sapiens, UniProt P05067); experiment: Competition binding to amyloid-beta in AD brain homogenate; settings: for IC50: fluorine-19 derivatives
Procedure: 20 μg of human Alzheimer disease brain homogenate was incubated with a dilution series of each test compound (1000 to 0.06 nM) in the presence of 800 Bq of ^18F-labeled beta-amyloid binder. The samples were shaken at 110 rpm for 45 min at 37° C. Samples were then filtered through GF/B 96 well filter plates and washed twice with 300 μL assay buffer (PBS containing 0.1% BSA and 2% DMSO). Thereafter, filter plates were sealed and a Fuji Film Imaging Plate (BAS-SR2025) was placed on top. The imaging plate was analyzed after overnight exposition using a Fuji Film BAS-5000. Non-specific signal was determined with samples containing ^18F-labeled beta-amyloid binder in the presence of assay buffer without brain substrate and competitor. […] The unblocked ^18F-labeled beta-amyloid binder signal was defined as total binding. IC50 values were calculated by Prism V6 (GraphPad) setting total binding to 100%.

[2] = PK studies in healthy mice (dynamic PET); type: in vivo, NMRI mice; parameters: Good brain uptake (grade) / Mouse PK Uptake (grade): key: −: poor; ∘: moderate; +: good; ++: very good; +++: excellent; on Fast washout from healthy brain (grade): key: −: poor; ∘: moderate; +: good; ++: very good; +++: excellent; on Good brain uptake (grade): key: −: poor; ∘: moderate; +: good; ++: very good; +++: excellent; on Mouse PK De-fluorination (grade): key: −: poor; ∘: moderate; +: good; ++: very good; +++: excellent; on Mouse PK Washout (grade): key: −: poor; ∘: moderate; +: good; ++: very good; +++: excellent
Procedure: NMRI mice (weight range 25-35 g) were injected intravenously with the ^18F-labeled compounds. Up to 150 μL of 1×PBS solution with 10%-15% EtOH or dilution medium ([…]) containing the ^18F-labeled compound (2-10 MBq) were injected. Anesthesia with isoflurane was induced before injection of the tracer and maintained during the image acquisition period. PET scans were performed using a SIEMENS INVEON small animal PET/CT scanner (Siemens, Knoxville, Tenn.). PET acquisition was started immediately before the radioactive dose was injected into the animal through the tail vein. Images were generated as dynamic scans for 60 minutes.
The peak uptake in the brain was set to 100% and washout curves were generated to evaluate the clearance of the activity from the normal brain (FIG. 2).

[3] = tested on: Tau in AD brain sections; experiment: Autoradiography on human AD brain slices; type: binding
Procedure: (§1) 18 micron thick frozen human brain slices and 6 micron thick human FFPE brain slices were examined via autoradiography. Brain sections were equilibrated for at least 1 h in 1×PBS solution prior to use in the experiment. Each brain section was covered with a solution of the ^18F-labeled tracer (200 Bq/μl, 500 μl) in 1×PBS. For blocking experiments with the corresponding ^19F-compound, an excess of the blocking compound (10 μM) was mixed with the ^18F-compound. The brain sections were allowed to incubate with the tracer solution at room temperature for 1 h, drained afterwards and placed in a slide holder. The slides were then washed sequentially with 1×PBS for 1 min; 70% EtOH in 1×PBS for 2 min; 30% EtOH in 1×PBS for 2 min; and 1×PBS for 1 min. The slides were allowed to air-dry before being placed on Fuji imaging plates […] for overnight exposure. The imaging plates were scanned and the signal was measured using Fuji software to produce an autoradiographic image of the brain section.

[4] = tested on: Tau (AD brain vs mouse brain homogenate); experiment: Tracer signal ratio, AD brain vs mouse brain homogenate; type: binding, human; parameters: High signal to noise (grade), AD brain / mouse brain homogenate: key: −: poor; ∘: moderate; +: good; ++: very good; +++: excellent
[5] = target: T1, Tau in PSP brain sections (Homo sapiens, UniProt P10636); experiment: Autoradiography on human PSP brain slices; type: binding
T1 construct: frozen human brain slices; from tissue; host or cells: human PSP brain slices
T1 sequence (P10636 1-441 isoform P10636-8): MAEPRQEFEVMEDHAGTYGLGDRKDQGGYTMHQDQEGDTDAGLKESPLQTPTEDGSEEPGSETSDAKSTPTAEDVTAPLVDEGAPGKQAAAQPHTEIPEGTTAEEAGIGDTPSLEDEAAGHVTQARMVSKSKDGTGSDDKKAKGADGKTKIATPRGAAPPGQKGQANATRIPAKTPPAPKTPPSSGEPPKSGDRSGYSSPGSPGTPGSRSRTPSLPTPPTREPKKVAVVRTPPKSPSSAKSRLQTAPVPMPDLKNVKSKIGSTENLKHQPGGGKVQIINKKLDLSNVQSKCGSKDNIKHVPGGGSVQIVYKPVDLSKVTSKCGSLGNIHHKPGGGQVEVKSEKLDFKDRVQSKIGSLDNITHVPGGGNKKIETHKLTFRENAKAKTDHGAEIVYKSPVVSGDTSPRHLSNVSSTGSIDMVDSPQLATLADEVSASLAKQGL
Procedure: as §1

[6] = tested on: Tau pathology; experiment: Human imaging study (PET in AD subjects and non-demented controls); type: in vivo
Procedure: In a clinical trial, subjects with AD as well as non-demented controls (NDC) underwent dynamic PET imaging for over 3 h following 370 MBq bolus injection of ^18F-4.

[7] = target: T2, Tau in PiD brain sections (Homo sapiens, UniProt P10636); experiment: Autoradiography on human PiD brain slices; type: binding
T2 construct: frozen human brain slices; from tissue; host or cells: human PiD brain slices
T2 sequence (P10636 1-410 isoform P10636-5): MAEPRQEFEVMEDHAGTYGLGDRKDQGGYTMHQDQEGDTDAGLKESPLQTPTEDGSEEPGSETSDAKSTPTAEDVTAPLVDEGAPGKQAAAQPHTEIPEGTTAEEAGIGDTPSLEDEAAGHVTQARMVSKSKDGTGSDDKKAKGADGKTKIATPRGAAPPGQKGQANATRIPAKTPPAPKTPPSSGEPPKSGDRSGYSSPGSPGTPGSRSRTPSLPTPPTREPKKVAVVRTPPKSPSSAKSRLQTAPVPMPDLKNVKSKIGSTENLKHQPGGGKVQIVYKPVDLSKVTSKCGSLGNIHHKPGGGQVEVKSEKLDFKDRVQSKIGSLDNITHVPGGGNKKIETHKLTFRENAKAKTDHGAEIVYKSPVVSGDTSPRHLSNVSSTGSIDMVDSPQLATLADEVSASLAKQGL
Procedure: as §1

[8] = tested on: Tau (AD brain homogenate vs healthy control brain homogenate); experiment: Tracer signal-to-noise ratio, AD brain homogenate vs healthy control brain homogenate; type: binding, human; parameters: High signal to noise (grade), AD brain / HC brain homogenate / High signal to noise (further homogenates) (grade): key to the marks not given beside the values
[9] = Autoradiography on healthy control (HC) human brain slices; type: binding
Procedure: as §1

[10] = further AD brain homogenate vs HC brain homogenate

Chain of amyloid-beta (P05067 whole entry): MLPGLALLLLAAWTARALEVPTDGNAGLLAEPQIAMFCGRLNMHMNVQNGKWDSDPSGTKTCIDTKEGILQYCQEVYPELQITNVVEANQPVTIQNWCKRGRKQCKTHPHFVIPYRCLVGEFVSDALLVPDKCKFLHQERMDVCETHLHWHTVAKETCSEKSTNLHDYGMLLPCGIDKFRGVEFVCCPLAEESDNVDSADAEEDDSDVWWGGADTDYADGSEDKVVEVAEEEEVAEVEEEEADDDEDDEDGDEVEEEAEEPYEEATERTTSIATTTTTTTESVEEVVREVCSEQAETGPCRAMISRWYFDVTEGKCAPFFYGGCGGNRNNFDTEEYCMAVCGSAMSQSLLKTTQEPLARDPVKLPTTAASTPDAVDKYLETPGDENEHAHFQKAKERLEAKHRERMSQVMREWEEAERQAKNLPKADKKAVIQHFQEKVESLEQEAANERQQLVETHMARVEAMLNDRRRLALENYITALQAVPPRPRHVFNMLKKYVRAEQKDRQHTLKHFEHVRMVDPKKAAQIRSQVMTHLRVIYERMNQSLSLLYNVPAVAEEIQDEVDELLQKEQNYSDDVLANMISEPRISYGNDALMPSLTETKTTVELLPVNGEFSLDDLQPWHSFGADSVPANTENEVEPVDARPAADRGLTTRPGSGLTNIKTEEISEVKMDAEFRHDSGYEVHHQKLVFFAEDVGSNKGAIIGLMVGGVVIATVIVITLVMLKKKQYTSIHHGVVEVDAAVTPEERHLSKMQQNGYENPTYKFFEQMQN

Fc1ncccc1-c1ccc2c(n1)[nH]c1ccncc12 [Compound F-4]
IC50 [1]: > 1000 nM
Mouse PK De-fluorination (grade) ([2]; Table 2): +++
Mouse PK Uptake (grade) ([2]; Table 2): ++
Mouse PK Washout (grade) ([2]; Table 2): ++
bone uptake in shoulder joint at 60 min (de-fluorination) ([2]; healthy mice, after iv injection): (<0.5% ID/g) ^f
peak uptake in brain (tracer uptake in healthy mice after iv injection) ([2]; healthy mice, iv, PET): (5.8% ID/g)
ratio of uptake peak/30 min (washout from healthy brain) ([2]; healthy mice, Table 1: ratio of uptake at 2 min and 30 min): (22)

[18F]c1ncccc1-c1ccc2c(n1)[nH]c1ccncc12 [Compound ^18F-4]
Low affinity to amyloid-beta (grade) ([1]; Table 1): +++^a)
IC50 [1]: > 1000 nM
Autoradiography signal in AD brain sections (in words) ([3]; blockable with excess cold compound): strong punctated staining; also recorded: Specific binding
Binding to AD brain (Braak stage 1/3) by autoradiography (grade) ([3]; in house data): +++^a)
Binding to AD brain (Braak stage 5/6) by autoradiography (grade) ([3]; in house data): +++^a)
Ratio of tracer signal AD brain / signal in mouse brain homogenate ([4]; 18F tracer): 15.1^a)
fold higher signal to noise ratio than 18F-1 ([4]; AD brain homogenate vs whole mouse brain homogenate): 6.9 fold
High signal to noise (grade), AD brain / mouse brain homogenate ([4]; Table 1): +++
Autoradiography signal in PSP brain sections (in words) [5]: strong signal
Binding to PSP brain slices by autoradiography (grade) ([5]; in house data): +++^a)
Fast washout from healthy brain (grade) ([2]; Table 1): +++
Good brain uptake (grade) ([2]; Table 1): ++
Low or minor de-fluorination (grade) ([2]; Table 1): +++
Low retention in healthy brain (grade) ([2]; Table 1): +++
fold faster washout from healthy brain than compound 18F-1 ([2]; mice): 3.2 fold
fold faster washout from healthy brain than compound 18F-2 ([2]; mice): 2.0 fold
fold less long-term retention in healthy brain than compound 18F-1 ([2]; mice): 4 fold
fold less long-term retention in healthy brain than compound 18F-2 ([2]; mice): 3 fold
De-fluorination in mice (in words) ([2]; mouse, in vivo): No de-fluorination
brain uptake in human subjects (in words) ([6]; 370 MBq bolus, dynamic PET): good brain uptake
washout from non-target brain regions in human subjects (in words) ([6]; 370 MBq bolus, dynamic PET): fast washout
uptake in AD subjects (in words) ([6]; AD subjects): focal asymmetric uptake was evident in temporal, parietal and frontal lobes
uptake in choroid plexus, basal ganglia, striatum, amygdala, meninges in non-demented controls (in words) ([6]; NDC subjects): no increased uptake
Autoradiography signal in PiD brain sections (in words) [7]: strong signal
Binding to PiD brain slices by autoradiography (grade) ([7]; in house data): +++^a)
fold higher signal to noise ratio than 18F-1 ([8]; AD vs HC brain homogenate): 7.7 fold
High signal to noise (further homogenates) (grade) ([8]; Table 1): +++
High signal to noise (grade), AD brain / HC brain homogenate ([8]; Table 1): +++
fold higher signal to noise ratio than 18F-1 [8, 10]: 7.2-11 fold
fold higher signal to noise ratio than 18F-2 [8, 10]: 3.7-4.0 fold
Autoradiography signal in healthy control (HC) sections (in words) [9]: no specific signal was visible
